In PubChem BioAssay (NCI) one finds GI50 and TGI data, which are given here for 9 compounds.

Some test systems named below: HL-60(TB) leukemia; CAKI-1 renal; RPMI-8226 leukemia; KM12 colon; SNB-75 CNS; SK-MEL-2 melanoma; M14 melanoma.
Holding throughout (assay): DTP human tumour cell line panel, 48 h

Each structure is given as a SMILES string.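 Cells were grown in 96-well plates and exposed to each compound for 48 hours at five concentrations; endpoints were interpolated linearly between bracketing concentrations, or set to the highest concentration if not reached. GI50: concentration for 50% inhibition of growth. TGI: total growth inhibition.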 Bounds are passed on as bounds.

As usually defined, the GI50 is the concentration that inhibits growth by half. The TGI is the concentration giving total growth inhibition. Lower therefore signals greater sensitivity of the cells. For the compound `Cc1nc2cc(Nc3nc(Nc4ccc(F)cc4)nc(N4CCN(C)CC4)n3)ccc2n1Cc1ccccc1`, the GI50 with HL-60(TB) leukemia is 1.34 µM; in the assay on CAKI-1 renal, 2.19 µM; in the assay with RPMI-8226 leukemia, 1.75 µM; with KM12 colon, 1.73 µM; in the assay with SNB-75 CNS, 1.4 µM; in the assay on SK-MEL-2 melanoma, 1.97 µM. The GI50 in the assay with M14 melanoma is 1.97 µM. Moreover, the total growth inhibition concentration (TGI) in the assay with HL-60(TB) leukemia turned out to be 3.36 µM; with CAKI-1 renal it was 5.4 µM; in the assay with RPMI-8226 leukemia, 4.28 µM; in the assay with KM12 colon, 3.25 µM; in the assay on SNB-75 CNS, 2.79 µM; in the assay on SK-MEL-2 melanoma, 3.58 µM. The same compound yielded a TGI in the assay with M14 melanoma of 3.69 µM.
For the compound `COc1cc(C2=NN(c3ccc(S(N)(=O)=O)cc3)C(c3ccc(Cl)cc3)C2)cc(OC)c1OC` (stereo not given), the GI50 is 3.94 µM with HL-60(TB) leukemia; 3.7 µM in the assay with RPMI-8226 leukemia; 4.79 µM in the assay on KM12 colon; 2.22 µM in the assay on SNB-75 CNS; 3.35 µM with SK-MEL-2 melanoma; 4.8 µM with M14 melanoma. Besides, the TGI was greater than 100 µM in the assay with HL-60(TB) leukemia; greater than 100 µM in the assay on RPMI-8226 leukemia; greater than 100 µM in the assay on KM12 colon; greater than 100 µM in the assay on SNB-75 CNS; 14.1 µM with SK-MEL-2 melanoma; greater than 100 µM with M14 melanoma.
As for `Cc1cccc2c1O/C(=C\c1ccc([N+](=O)[O-])o1)C2=O`, the GI50 was 1.58 µM in the assay on HL-60(TB) leukemia; 0.494 µM in the assay on CAKI-1 renal; 0.32 µM in the assay with RPMI-8226 leukemia; 1.38 µM in the assay with KM12 colon; 1.64 µM in the assay with SNB-75 CNS; 1.76 µM with SK-MEL-2 melanoma. Moreover, in the assay with M14 melanoma, the GI50 is 1.43 µM. The total growth inhibition concentration (TGI) in the assay with HL-60(TB) leukemia worked out at 4.35 µM; in the assay with CAKI-1 renal it was 1.8 µM; in the assay with RPMI-8226 leukemia, 1.8 µM; in the assay with KM12 colon, 2.99 µM; with SNB-75 CNS, 5.8 µM; in the assay on SK-MEL-2 melanoma, 3.52 µM. The compound further had a TGI with M14 melanoma of 3.21 µM.
Take `CS(=O)(=O)CCn1c(=O)c(Oc2ccc(F)cc2F)cc2cnc(NC3CCOCC3)nc21`: the GI50 with HL-60(TB) leukemia, with CAKI-1 renal, with RPMI-8226 leukemia, in the assay on KM12 colon, in the assay with SNB-75 CNS and in the assay on SK-MEL-2 melanoma was greater than 25 µM in each case. The GI50 with M14 melanoma is greater than 25 µM. The TGI in the assay on HL-60(TB) leukemia, in the assay on CAKI-1 renal, in the assay with RPMI-8226 leukemia, in the assay with KM12 colon, in the assay with SNB-75 CNS and in the assay on SK-MEL-2 melanoma was greater than 25 µM throughout. Besides, the TGI with M14 melanoma was greater than 25 µM.
Take `C[C@@H](Oc1ccc2[nH]nc(/C=C/c3cnn(CCO)c3)c2c1)c1c(Cl)cncc1Cl`: the GI50 in the assay on HL-60(TB) leukemia was 0.237 µM; in the assay with CAKI-1 renal it was 0.184 µM; in the assay with RPMI-8226 leukemia it was 1.54 µM; with KM12 colon, less than 0.01 µM; with SNB-75 CNS, 0.159 µM; in the assay on SK-MEL-2 melanoma, 1.37 µM. The GI50 in the assay with M14 melanoma was 0.739 µM. Also, the total growth inhibition concentration (TGI) with HL-60(TB) leukemia is 3.21 µM; with CAKI-1 renal, greater than 100 µM; in the assay with RPMI-8226 leukemia it was 4.41 µM; in the assay on KM12 colon, 5.87 µM; in the assay with SNB-75 CNS, 0.561 µM; in the assay with SK-MEL-2 melanoma, 3.08 µM. This compound also registered a concentration for total growth inhibition (TGI) in the assay with M14 melanoma of 3.11 µM.
Regarding `CCCCCCNc1nc(N2CCOCC2)c2[nH]c(NCCCCCC)nc2n1`, the GI50 is 1.53 µM in the assay on CAKI-1 renal; 1.91 µM in the assay on RPMI-8226 leukemia; 1.67 µM with KM12 colon; 1.46 µM with SNB-75 CNS; 1.89 µM with SK-MEL-2 melanoma; 1.84 µM with M14 melanoma. Moreover, the concentration for total growth inhibition (TGI) in the assay on CAKI-1 renal came to 2.97 µM; in the assay on RPMI-8226 leukemia, 5.42 µM; in the assay on KM12 colon, 3.06 µM; with SNB-75 CNS, 2.77 µM; in the assay with SK-MEL-2 melanoma it was 3.51 µM; in the assay on M14 melanoma, 3.39 µM.
In the case of `Cc1ccc2c(c1)O/C(=C\c1ccc([N+](=O)[O-])o1)C2=O`, the GI50 was 1.92 µM with HL-60(TB) leukemia; 1.41 µM with CAKI-1 renal; 0.447 µM in the assay with RPMI-8226 leukemia; 1.7 µM in the assay on KM12 colon; 2.85 µM in the assay with SNB-75 CNS; 1.9 µM with SK-MEL-2 melanoma. In addition, the GI50 in the assay on M14 melanoma was 1.75 µM. Besides, the concentration for total growth inhibition (TGI) in the assay with HL-60(TB) leukemia was 5.09 µM; in the assay with CAKI-1 renal, 2.94 µM; in the assay on RPMI-8226 leukemia it was 2.54 µM; in the assay with KM12 colon, 3.4 µM; with SNB-75 CNS, greater than 100 µM; in the assay on SK-MEL-2 melanoma it was 3.72 µM. For the same compound, the TGI in the assay on M14 melanoma was 4.07 µM.
In the case of `c1ccc2cc(Cn3c[n+](Cc4ccc5ccccc5c4)c4ccccc43)ccc2c1`, in the assay with KM12 colon, the GI50 is 1.54 µM and the TGI was found to be 3.15 µM. Further, in the assay with SK-MEL-2 melanoma, the GI50 is 1.64 µM and the concentration for total growth inhibition (TGI) was determined as 3.14 µM.
For `COc1cc(-c2cc(/C=C3\C(=O)Nc4ccccc43)[nH]n2)cc(OC)c1OC`, the GI50 is 2.62 µM in the assay on HL-60(TB) leukemia; 1.77 µM in the assay on RPMI-8226 leukemia; 1.26 µM in the assay on KM12 colon; 1.18 µM in the assay with SNB-75 CNS; 2.27 µM in the assay on SK-MEL-2 melanoma; 2.29 µM in the assay on M14 melanoma. Moreover, the TGI stood at 7.66 µM in the assay on HL-60(TB) leukemia; 4.37 µM in the assay on RPMI-8226 leukemia; 10.7 µM with KM12 colon; 10 µM with SNB-75 CNS; 5.57 µM in the assay on SK-MEL-2 melanoma; 7.17 µM in the assay on M14 melanoma.
